According to article PMC5160925 (Frontiers in Microbiology, 2016):

Experiments:
Type in all cases: biochemical
[1] = target: T1, GadA6803 (glutamate decarboxylase) (Synechocystis sp. PCC 6803, UniProt P73043); assay: HPLC of PITC derivatives, GABA formation; conditions: 1 mM glutamate, 50 mM K-phosphate, pH 4.5, room temperature, 1 h
T1 construct: gene gad; full ORF, N-terminal His10 tag kept, E. coli DH5alpha, Ni-NTA purified

[2] = target: T2, ArgD6803 (N-acetylornithine aminotransferase) (Synechocystis sp. PCC 6803, UniProt P73133); assay: HPLC of PITC derivatives, glutamate formation; conditions: 1 mM 2-oxoglutarate, 50 mM K-phosphate, pH 9, room temperature, 1 h
T2 construct: gene argD; full ORF, N-terminal His10 tag kept, E. coli DH5alpha, Ni-NTA purified

[3] = target: T3, ArgD7002 (N-acetylornithine aminotransferase) (Picosynechococcus sp. PCC 7002, UniProt B1XNF8); assay: HPLC of PITC derivatives, glutamate formation; conditions: 1 mM GABA, 1 mM 2-oxoglutarate, 50 mM K-phosphate, pH 9, room temperature, 1 h
T3 construct: gene argD; full ORF, N-terminal His10 tag kept, E. coli DH5alpha, Ni-NTA purified
T3 sequence (B1XNF8 1-418): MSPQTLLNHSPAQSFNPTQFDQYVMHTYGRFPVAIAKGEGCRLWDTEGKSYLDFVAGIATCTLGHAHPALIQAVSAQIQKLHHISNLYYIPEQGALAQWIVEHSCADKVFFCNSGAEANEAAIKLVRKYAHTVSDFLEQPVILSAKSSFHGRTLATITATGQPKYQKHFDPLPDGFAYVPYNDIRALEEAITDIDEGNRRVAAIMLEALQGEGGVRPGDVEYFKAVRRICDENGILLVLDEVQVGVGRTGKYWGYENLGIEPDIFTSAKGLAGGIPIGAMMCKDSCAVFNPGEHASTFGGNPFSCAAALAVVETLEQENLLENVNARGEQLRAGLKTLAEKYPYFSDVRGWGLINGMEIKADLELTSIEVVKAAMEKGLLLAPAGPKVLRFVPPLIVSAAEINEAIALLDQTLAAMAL

SMILES: N[C@@H](CCC(=O)O)C(=O)O [glutamate]
- HPLC of PITC derivatives, GABA formation [1]: this protein catalyzes the conversion of glutamate to GABA

SMILES: NCCC[C@H](N)C(=O)O [L-ornithine]
- HPLC of PITC derivatives, glutamate formation ([2]; 1 mM L-ornithine): argD6803 or argD7002 was incubated with L-ornithine and 2-OG, glutamate was produced

SMILES: NCCCC(=O)O [GABA]
- HPLC of PITC derivatives, glutamate formation [3]: argD6803 or argD7002 was incubated with GABA and 2-oxoglutarate, glutamate was produced
- HPLC of PITC derivatives, glutamate formation ([2]; 1 mM GABA): argD6803 or argD7002 was incubated with GABA and 2-oxoglutarate, glutamate was produced
